Assay results as given in PubChem BioAssay (NCI).
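Interpolation was linear, between the two tested concentrations surrounding the appropriate level; five concentrations were tested over 48 hours in 96-well plates. GI50: concentration for 50% inhibition of growth. The concentration for full growth arrest is given as TGI.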

Key:
Experiment in all cases: growth of human tumour cells (NCI), 48 h
HS 578T breast = tested on: HS 578T breast
HL-60(TB) leukemia = tested on: HL-60(TB) leukemia
SK-OV-3 ovarian = tested on: SK-OV-3 ovarian
786-0 renal = tested on: 786-0 renal
PC-3 prostate = tested on: PC-3 prostate
MDA-MB-435 = tested on: MDA-MB-435
U251 CNS = tested on: U251 CNS
NCI-H522 lung = tested on: NCI-H522 lung
SK-MEL-5 melanoma = tested on: SK-MEL-5 melanoma
CAKI-1 renal = tested on: CAKI-1 renal

| Compound | GI50 (HS 578T breast) [µM] | TGI (HS 578T breast) [µM] | GI50 (HL-60(TB) leukemia) [µM] | TGI (HL-60(TB) leukemia) [µM] | GI50 (SK-OV-3 ovarian) [µM] | TGI (SK-OV-3 ovarian) [µM] | GI50 (786-0 renal) [µM] | TGI (786-0 renal) [µM] | GI50 (PC-3 prostate) [µM] | TGI (PC-3 prostate) [µM] | GI50 (MDA-MB-435) [µM] | TGI (MDA-MB-435) [µM] | GI50 (U251 CNS) [µM] | TGI (U251 CNS) [µM] | GI50 (NCI-H522 lung) [µM] | TGI (NCI-H522 lung) [µM] | GI50 (SK-MEL-5 melanoma) [µM] | TGI (SK-MEL-5 melanoma) [µM] | GI50 (CAKI-1 renal) [µM] | TGI (CAKI-1 renal) [µM] |
| --- | --- | --- | --- | --- | --- | --- | --- | --- | --- | --- | --- | --- | --- | --- | --- | --- | --- | --- | --- | --- |
| CCc1nc2cc(/C=C/C(=O)NO)ccc2c(=O)n1CCc1ccc(F)cc1 | 2.26 | > 100 | 4.59 | > 100 | 1.93 | 4.3 | 1.76 | 3.89 | 2.92 | > 100 | 1.7 | 4.38 | 1.31 | 2.91 | 1.34 | 4.06 | 0.903 | 2.21 | 2.27 | 6.12 |
| C=C1C(=O)OC2CC3(C)CCCC(C)C3=CC12 (centres undefined) |  | 36.6 |  | 2.59 |  | 56.1 |  | 11.6 |  | 39.2 |  | 14.1 |  | 22.2 |  | 3.97 |  | 4.6 |  | 9.27 |
| O=C(Nc1nc(-c2ccc(Cl)cc2)nc2c1sc(=S)n2-c1ccccc1)C(F)(F)F | 3.37 | 9.7 | > 100 | > 100 | 2.71 | 8.1 | 1.67 | 3.27 | 8.95 | 71.4 | 5.4 | > 100 | 3.23 | 9.87 | 4.72 | 39.8 | 8.23 | 32.3 | 4 | 16 |
| NNC(=S)Nc1cccc(Cl)c1 |  | > 100 |  | > 100 |  | > 100 |  | > 100 |  | > 100 |  | > 100 |  | > 100 |  | > 100 |  | > 100 |  | > 100 |
| COc1ccc2c(c1)C(=O)c1c-2n(CCCN)c(=O)c2cc(OC)c(OC)cc12 | 2.2 | 4.81 | < 0.0245 |  | 0.499 | 10.7 | 0.146 | 0.445 | 0.205 | 1.27 | 1.33 | 2.86 | 0.0491 | 1.63 | < 0.01 | 1.03 | 0.283 | 1.93 | 0.0619 | 0.467 |
| O=S(=O)(Nc1ccc2ccccc2c1)c1ccc(-c2cnc(C3CC3)o2)cc1 | 0.811 | 13.2 | 0.407 | 6.99 | 1.54 | 32.3 | 3.1 | 18.7 | 1.69 | 19.1 | 0.214 | 0.598 | 1.25 | 15.7 | 0.766 | 14.5 | 0.829 | 12.7 | 0.539 | 38 |
| CC[C@]12C=CCN3CC[C@@]4(c5ccc(OC)cc5N(C)[C@H]4[C@@](O)(C(=O)OC)[C@@H]1OC(=O)CCC(=O)N[C@H](Cc1c[nH]c4ccccc14)C(=O)OC)[C@@H]32 | 5.52 | 28.7 |  |  | 15.5 | 33.7 | 3.08 | > 100 | 2.95 | 17 | 5.42 | 22.5 | 8.08 | 24.9 | 14.4 | 34.9 | 2.54 | 7.14 | 3.65 | 17 |
| O=C(Nc1cccc(Cl)c1)c1cc(N=Nc2ccc([N+](=O)[O-])cc2Cl)ccc1O | 1.95 | 7.71 |  |  | 1.94 | 6.63 | 2.93 | 8.27 | 1.94 | 6.36 | 2.34 | 5.96 | 1.93 | 7 | 2.94 | 6.95 | 1.86 | 3.81 | 1.93 | 4.02 |
| COC(=O)C1=C(O)[C@H](C(=O)OC)[C@]2(O)[C@@H](C(=O)OC)[C@H]1C[C@@H](c1ccc(OC(=O)/C=C/c3ccco3)cc1)[C@@H]2C(=O)OC | > 100 | > 100 | 13.9 | 75.1 |  |  | 11.8 | 30.6 | 21.5 | 88.3 | 21.7 | 66.8 | 10.3 | 23.8 |  |  | 27.1 | 94.4 | 27 | 86.8 |
| O=C(Nc1ccc2c(c1)OCO2)C(=O)c1c[nH]c2cc(F)ccc12 | 2.63 | 62.7 | 4.51 | > 100 | 4.24 | 15.2 | 4.39 | 23 | 3.33 | > 100 | 0.854 | > 100 | 9.17 | 51.7 |  |  | 0.726 | 10.6 | 0.677 | > 100 |
